The test system of assay [1] is PGE2 production in mouse peritoneal exudate cells. Put plainly: LPS-induced PGE2 production system using mouse peritoneal exudate cells. Type of assay: cell-based. The following applies: LPS 10 μg/ml, 6 hours. As for the experimental part: For evaluation of the PGE2 production inhibiting activity, the lipopolysaccharide (LPS)-induced PGE2 production system using mouse peritoneal exudate cells with reference to the method of Kim et al. (see Kim, Y K et al., Biol Pharm Bull 25: 472, 2002) was used. That is, 2 ml of thioglycolate solution (made by Sigma, Brewer's Thioglycorate medium) per mice were intraperitoneally administered to 8-week old female C3H/HeN mice (Charles River Japan). After 4 days, a phosphate buffer saline (PBS) 5 ml was used to wash the abdominal cavity and the infiltrating cells were recovered. The recovered cells were suspended in a predetermined concentration in an RPMI1640 medium (Nacalai Tesque) containing 10% bovine fetal serum (BioWhittaker) and 10 μg/ml gentamycin (Invitrogen).
The infiltrating cell suspension 100 μl containing 2×10^5 cells per well was inoculated in a 96-well culture plate, then the test compound solution or solvent 50 μl was added. Under conditions of 5% CO2 and 37° C., this was precultured for 15 minutes, then LPS (made by Sigma: L-4524) solution 50 μl (final concentration of LPS of 10 μg/ml) was added, and the mixture was cultured for a further 6 hours. After the end of the culture, the culture supernatant was recovered and the PGE2 concentration in the supernatant was measured using an EIA kit (made by Amersham). Based on the measurement value, the test compound concentration suppressing 50% of the PGE2 production at the time of non-addition of a compound (IC50 value) was calculated.

In assay [2] the target is T1, cPLA2 crudely purified from the cytoplasm fraction of U937 (Homo sapiens, UniProt P47712).
T1 construct: cPLA2 crudely purified from the cytoplasm fraction of U937; endogenous in cells; host or cells: U937 cells (cytoplasm fraction, crude purification)
T1 sequence (P47712 1-749): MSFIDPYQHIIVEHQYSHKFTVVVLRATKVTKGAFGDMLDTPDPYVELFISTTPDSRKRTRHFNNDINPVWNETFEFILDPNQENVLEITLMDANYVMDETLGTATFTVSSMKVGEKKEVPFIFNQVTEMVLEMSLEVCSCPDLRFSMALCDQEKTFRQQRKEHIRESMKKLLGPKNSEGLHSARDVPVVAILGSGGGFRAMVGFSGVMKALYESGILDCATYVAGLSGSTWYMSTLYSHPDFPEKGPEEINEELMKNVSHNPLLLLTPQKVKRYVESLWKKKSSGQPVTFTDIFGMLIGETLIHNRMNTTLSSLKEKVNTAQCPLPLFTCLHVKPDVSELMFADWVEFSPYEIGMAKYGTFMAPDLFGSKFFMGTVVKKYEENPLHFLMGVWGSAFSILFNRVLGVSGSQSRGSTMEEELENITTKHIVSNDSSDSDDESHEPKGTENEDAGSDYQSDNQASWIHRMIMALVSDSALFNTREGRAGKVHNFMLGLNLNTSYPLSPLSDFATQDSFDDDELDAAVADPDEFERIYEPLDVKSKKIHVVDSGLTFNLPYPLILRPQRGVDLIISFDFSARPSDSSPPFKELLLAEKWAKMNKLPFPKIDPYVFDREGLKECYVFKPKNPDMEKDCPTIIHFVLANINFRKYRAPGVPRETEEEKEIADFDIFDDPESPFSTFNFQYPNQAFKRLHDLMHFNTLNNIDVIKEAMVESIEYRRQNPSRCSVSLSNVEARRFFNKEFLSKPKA
Put plainly: Measurement of cPLA2 inhibitory activity (release of [14C]-arachidonic acid from phosphatidyl choline liposome). Type of assay: biochemical. Particulars: cPLA2 from U937 cytoplasm fraction, [14C]arachidonyl-phosphatidyl choline liposome, 37° C., 60 minutes; read-out: cPLA2 inhibitory activity, 50% inhibiting concentration IC50. Summed up: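 The read-out is radioactivity from extracted [14C]-arachidonic acid, freed over 60 min at 37° C from liposomes of 14C-arachidonyl phosphatidylcholine (10 μM PC in the added solution). Buffer was 50 mM HEPES pH 7.5 with Ca2+, DTT, NaCl and BSA. IC50 was derived from inhibition relative to enzyme control minus no-enzyme control.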

Assay [3] relates to PGD2 production in rat mast cell like cell line RBL-2H3. Put plainly: Antigen-induced PGD2 production system using RBL-2H3 sensitized by DNP specific IgE. Type of assay: cell-based. The following applies: 0.5 h, RBL-2H3, anti-DNP-IgE sensitized, antigen 10 μg/ml, 30 minutes. As for the experimental part: To evaluate the PGD2 production inhibiting activity, the antigen-induced PGD2 production system using rat mast cell like cell line RBL-2H3 sensitized by a dinitrophenol (DNP) specific IgE with reference to the method of Yamashita et al. (see Yamashita, M. et al., Br J Pharmacol 129: 367, 2000) was used. That is, rat mast cell like cell line RBL-2H3 cells were suspended in a Dulbecco's modified Eagle's medium (Nacalai Tesque) containing 10% bovine fetal serum (BioWhittaker) and 10 μg/ml gentamycin (Invitrogen). The infiltrating cell suspension 200 μl containing 1×10^5 cells per well was inoculated to 96-well culture plate and cultured over night under conditions of 5% CO2 and 37° C. The culture supernatant was removed, then the suspension was cultured for 2 hours in the presence of an anti-DNP-IgE antibody (1 μg/ml) for 2 hours to sensitize it. After the sensitization, the supernatant was removed and the test compound solution or solvent was added. The resultant product was precultured for 30 minutes, then 10 μg/ml of antigen (DNP-human serum albumin conjugate) was added to elicite PGD2 production.
30 minutes after antigen stimulus, the culture supernatant was recovered and the amount of PGD2 in the supernatant was measured using an EIA kit (made by Cayman). Based on the measurement value, the test compound concentration (IC50 value) suppressing the amount of PGD2 production at the time of nonaddition of the compound by 50% was calculated.

pIC50: −log10 of the molar value. Counter-ions that a name gives are not always drawn.

`O=C(O)CCc1ccc2c(c1)c(CCc1ccccc1)cn2-c1ccc(OCCO)cc1` [Example 229, 3-{1-[4-(2-hydroxyethoxy)phenyl]-3-(2-phenylethyl)-1H-indol-5-yl}propanoic acid 2-amino-2-(hydroxymethyl)propane-1,3-diol salt (1:1)]: the pIC50 is 6.10 in assay [1], 7.85 in assay [2] and 6.05 in assay [3].

As to `COCc1ccc(-n2cc(CCc3ccccc3)c3cc(CCC(=O)O)ccc32)cc1` [Example 217, 3-{1-[4-(methoxymethyl)phenyl]-3-(2-phenylethyl)-1H-indol-5-yl}propanoic acid 2-amino-2-(hydroxymethyl)propane-1,3-diol salt (1:1)], the values for the pIC50 in assay [1], in assay [2] and in assay [3] were 5.77, 7.33 and 5.95, respectively.

With `O=C(O)CCc1ccc2c(c1)c(CCc1ccccc1)cn2-c1ccc(Oc2ccccc2)cc1` [Example 231, 3-[1-(4-phenoxyphenyl)-3-(2-phenylethyl)-1H-indol-5-yl]propanoic acid 2-amino-2-(hydroxymethyl)propane-1,3-diol salt (1:1)], the pIC50 was 6.30 in assay [1], 7.70 in assay [2] and 6.12 in assay [3].

On to `O=C(O)CCc1ccc2c(c1)c(CCc1ccccc1)cn2-c1ccc(OC(F)F)cc1` [Example 190, 3-{1-[4-(difluoromethoxy)phenyl]-3-(2-phenylethyl)-1H-indol-5-yl}propanoic acid 2-amino-2-(hydroxymethyl)propane-1,3-diol salt (1:1)], for which the pIC50 was 6.07 in assay [1], 7.55 in assay [2] and 5.95 in assay [3].

As to `O=C(O)CCc1ccc2c(c1)c(CCc1ccccc1)cn2-c1ccc(F)cc1` [Example 187, 3-[1-(4-fluorophenyl)-3-(2-phenylethyl)-1H-indol-5-yl]propanoic acid], the pIC50 is 6.55 in assay [1], 7.24 in assay [2] and 6.37 in assay [3].

Regarding `O=C(O)CCc1ccc2c(c1)c(CCc1ccccc1)cn2-c1ccc(O)cc1` [Example 126, 3-[1-(4-hydroxyphenyl)-3-(2-phenylethyl)-1H-indol-5-yl]propanoic acid], the pIC50 in assay [1] was 6.27; in assay [2], 7.96; in assay [3] it was 5.92.
